Assay results as given in US10941157B2, “Pesticidal compositions and uses thereof” (Gilead Apollo, LLC, priority 2015, dated 2021).
Values after ≈ are worked out from the molar mass of the structure shown. Where two headings read alike, the source gives them in different places.

Tests used:
Septoria tritici (St) = test: In vitro pathogen growth inhibition assay, St; type: cell-based; settings: Zymoseptoria tritici, 48 h
Outline: (§1)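 Spores in 17% V8 liquid medium, or 1.5 mm Rs mycelial plugs in ¼ PDB, incubated with compound; final concentration checked by OD600 for precipitation. OD readings at 24 and 48 h, blank-subtracted, plus visual ratings; value is concentration giving ≥90% growth inhibition.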

Sphaerotheca fuliginea = test: Foliar protection for cucumber powdery mildew control; type: in vivo; settings: foliar spray on Cucumis sativus cv. Straight Eight, inoculated 24 hours after treatment, evaluated 7 days later
Outline: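 Cucumber plants (cv. Straight Eight, 10 days old) sprayed to wetness on both leaf surfaces, then inoculated 24 h later by shaking sporulating stock plants over them. Held at 23–27 °C, 16 h light, 60% RH. Mildew colonization scored 7 days after inoculation, at compound concentrations of 10 ppm or lower.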

[1] = tested on: Fusarium moniliforme (Fm); test: In vitro pathogen growth inhibition assay, Fm; type: cell-based; settings: Fusarium verticillioides
Outline: as §1

[2] = tested on: Blumeria graminis f. sp. hordei; test: Foliar protection test for barley powdery mildew control; type: in vivo; settings: foliar spray on Hordeum vulgare cv. Perry, inoculated 24 hours after treatment, evaluated 7 days later
Outline: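 Six-day-old barley (cv. Perry) sprayed to wetness on both leaf sides; 24 h later inoculated by shaking spores from infected stock plants. Kept at 20 to 22° C, 70% relative humidity; mildew colonization assessed 7 days later.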

Rhizoctonia solani (Rs) = test: In vitro pathogen growth inhibition assay, Rs (mycelial plugs); type: cell-based; settings: Rhizoctonia solani, 48 h, mycelial plugs
Outline: as §1

[3] = tested on: Fusarium virguliforme (Fv); test: In vitro pathogen growth inhibition assay, Fv; type: cell-based
Outline: as §1

Rhizoctonia solani = test: Seed protectant for soybean seedling disease, R. solani; type: in vivo; settings: soybean from treated seeds, 0.025 mg/seed, R. solani inoculated; for Plant Weight: fresh weight at 14 days; for Improvement in plant weight: percentage of non-inoculated non-treated controls
Outline: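 Treated soybean seeds (cv. AG4832) sown over R. solani (sorghum) or P. ultimum (millet) inoculum, grown at 20–24 °C, 14 h light, 65% humidity. Emergence scored at 7 and 14 days; shoot fresh weight at 14 days compared against inoculated and non-inoculated untreated seeds.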

[4] = tested on: Collectotrichum graminicola (Cg); test: In vitro pathogen growth inhibition assay, Cg; type: cell-based; settings: 48 h
Outline: as §1

Fusarium graminearum = type: in vivo; settings: spray on flowering Triticum aestivum cv. Samson, inoculated 24 hours after treatment, evaluated 14 days later
[5] = tested on: Mycosphaerella graminicola (synthetic Septoria tritici); test: Foliar protection test for wheat septoria leaf blotch control; type: in vivo; settings: foliar spray on Triticum aestivum cv. WinterHawk, inoculated 1 hour after treatment, evaluated 16 days later
[6] = ≥90% growth inhibition, 48 hours, vs 2% DMSO control, read-out: Compound Concentration (ppm) sufficient for ≥90% inhibition of St
[7] = ≥90% growth inhibition, 48 hours, vs 2% DMSO control, read-out: Compound Concentration (ppm) sufficient for ≥90% inhibition of Fm
[8] = ≥90% growth inhibition, 48 hours, vs 2% DMSO control, read-out: Compound Concentration (ppm) sufficient for ≥90% inhibition of Rs
[9] = ≥90% growth inhibition, 48 hours, vs 2% DMSO control, read-out: Compound Concentration (ppm) sufficient for ≥90% inhibition of Fv
[10] = ≥90% growth inhibition, 48 hours, vs 2% DMSO control, read-out: Compound Concentration (ppm) sufficient for ≥90% inhibition of Cg

Row | Structure (SMILES) | IC90 (Septoria tritici (St); [6]) | Cucumber Powdery Mildew Control at a compound concentration of 10 ppm or lower (Sphaerotheca fuliginea) | IC90 [1, 7] | Barley Powdery Mildew Control at a compound concentration of 10 ppm or lower [2] | IC90 (Rhizoctonia solani (Rs); [8]) | IC90 [3, 9] | Plant Weight (Rhizoctonia solani) | Improvement in plant weight (Rhizoctonia solani) | IC90 [4, 10] | Wheat Fusarium Head Blight Control at a compound concentration of 25 ppm or lower (Fusarium graminearum) | Septoria Leaf Blotch Control at a compound concentration of 25 ppm or lower [5] | IC90 (Septoria tritici (St); ≥90% inhibition, 48 hours vs 2% DMSO control, read-out: Compound Concentration (ppm) sufficient for ≥90% inhibition of growth, St) | IC90 ([1]; ≥90% inhibition, 48 hours vs 2% DMSO control, read-out: Compound Concentration (ppm) sufficient for ≥90% inhibition of growth, Fm) | IC90 (Rhizoctonia solani (Rs); ≥90% inhibition, 48 hours vs 2% DMSO control, read-out: Compound Concentration (ppm) sufficient for ≥90% inhibition of growth, Rs) | IC90 ([3]; ≥90% inhibition, 48 hours vs 2% DMSO control, read-out: Compound Concentration (ppm) sufficient for ≥90% inhibition of growth, Fv) | IC90 ([4]; ≥90% inhibition, 48 hours vs 2% DMSO control, read-out: Compound Concentration (ppm) sufficient for ≥90% inhibition of growth, Cg)
1 | COc1ccccc1[C@H](Cn1c(=O)n(C(C)(C)C(=O)NC(C)C)c(=O)c2c(C)c(-n3nccn3)sc21)OCCC#N [Compound I-193, (R)-2-(1-(2-(2-cyanoethoxy)-2-(2-methoxyphenyl)ethyl)-5-methyl-2,4-dioxo-6-(2H-1,2,3-triazol-2-yl)-1,4-dihydrothieno[2,3-d]pyrimidin-3 (2H)-yl)-N-isopropyl-2-methylpropanamide] | ≥ 2 µg/mL | AA (≥85% control of cucumber powdery mildew) | 0.08 µg/mL (≈ 0.138 µM) | AA (≥85% control of barley powdery mildew) | 0.08 µg/mL (≈ 0.138 µM) | 0.4 µg/mL (≈ 0.69 µM) | 6.83 g | 85.0% | ≥ 0.08 µg/mL | B (from 50 to 69% control of wheat fusarium head blight) | AA (≥85% control of wheat septoria leaf blotch) | – | – | – | – | –
2 | COc1ccc(F)cc1[C@H](Cn1c(=O)n(C(C)(C)C(=O)NC(C)C)c(=O)c2c(C)c(-n3nccn3)sc21)OCCC#N [Compound I-095, (R)-2-(1-(2-(2-cyanoethoxy)-2-(5-fluoro-2-methoxyphenyl)ethyl)-5-methyl-2,4-dioxo-6-(2H-1,2,3-triazol-2-yl)-1,4-dihydrothieno[2,3-d]pyrimidin-3 (2H)-yl)-N-isopropyl-2-methylpropanamide] | – | AA (≥85% control of cucumber powdery mildew) | – | AA (≥85% control of barley powdery mildew) | – | – | 7.54 g | 93.9% | – | B (from 50 to 69% control of wheat fusarium head blight) | AA (≥85% control of wheat septoria leaf blotch) | > 50 µg/mL | 0.08 µg/mL (≈ 0.134 µM) | 0.08 µg/mL (≈ 0.134 µM) | 0.08 µg/mL (≈ 0.134 µM) | 0.08 µg/mL (≈ 0.134 µM)
3 | COc1ccc(F)cc1[C@H](Cn1c(=O)n(C(C)(C)C(=O)NC(C)C)c(=O)c2c(C)c(-n3cccn3)sc21)OCCC#N [Compound I-191, (R)-2-(1-(2-(2-cyanoethoxy)-2-(5-fluoro-2-methoxyphenyl)ethyl)-5-methyl-2,4-dioxo-6-(1H-pyrazol-1-yl)-1,4-dihydrothieno[2,3-d]pyrimidin-3 (2H)-yl)-N-isopropyl-2-methylpropanamide] | ≥ 10 µg/mL | AA (≥85% control of cucumber powdery mildew) | 0.08 µg/mL (≈ 0.134 µM) | AA (≥85% control of barley powdery mildew) | 0.08 µg/mL (≈ 0.134 µM) | 0.4 µg/mL (≈ 0.67 µM) | 6.39 g | 79.6% | ≥ 0.4 µg/mL | C (from 25 to 49% control of wheat fusarium head blight) | AA (≥85% control of wheat septoria leaf blotch) | – | – | – | – | –
